Source: patent publication US20240067693A1, “POLYPEPTIDES AND USES THEREOF” (MEDIMMUNE LIMITED, priority 2020, published 2024)
Numbered stars: 1 amine (or outer) side, 2 acyl side, 3 side chain; on linkers, the order of the positions; unused ones are H or OH. Bridge positions count the residues as written; N and C are the ends. Square brackets hold non-standard residues; d marks the D form. Side chains are listed from the residue outwards. Peptide text beside a SMILES is read from it. * marks the point of attachment. C18 diacid = O=C(O)CCCCCCCCCCCCCCCCC(=O)*; γGlu = O=C(O)[C@H](CCC(=O)[*:2])N[*:1]; αMeF = C[C@](N)(Cc1ccccc1)C(=O)O; Aib = CC(C)(N)C(=O)O

How the values were obtained:
[1] = target: T1, human amylin receptor (calcitonin receptor co-expressed with receptor activity modifying protein, RAMP3) (hAMYR3) (Homo sapiens, UniProt O60896+P30988); test: cAMP production in 1321N1 cells with stable recombinant expression of human amylin receptor (hAMYR3); type: cell-based; settings: for Ratio (selectivity hAMYR vs hCTR, ratio of EC50 values at the two receptors): EC50 hCTR / EC50 hAMYR3; for EC50: cAMP, 1321N1 cells, assay buffer with 0.1% BSA, read-out: EC50 (pM) hAMYR3
T1 construct: expressed in transfected cells
T1 sequence (P30988 25-474): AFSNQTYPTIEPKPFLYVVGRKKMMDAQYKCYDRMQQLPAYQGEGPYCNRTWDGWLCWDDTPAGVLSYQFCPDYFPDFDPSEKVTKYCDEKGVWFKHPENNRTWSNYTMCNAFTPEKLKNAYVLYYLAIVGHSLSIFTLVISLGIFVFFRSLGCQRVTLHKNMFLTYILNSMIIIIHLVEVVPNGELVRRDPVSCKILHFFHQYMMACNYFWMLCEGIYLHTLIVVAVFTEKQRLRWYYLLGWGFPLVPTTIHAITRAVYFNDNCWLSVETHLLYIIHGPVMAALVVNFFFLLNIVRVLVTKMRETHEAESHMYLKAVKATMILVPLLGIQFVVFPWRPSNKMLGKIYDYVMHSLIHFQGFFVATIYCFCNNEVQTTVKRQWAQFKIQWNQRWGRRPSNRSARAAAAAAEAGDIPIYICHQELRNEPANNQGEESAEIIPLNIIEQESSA
T1 sequence (O60896 24-148 partner): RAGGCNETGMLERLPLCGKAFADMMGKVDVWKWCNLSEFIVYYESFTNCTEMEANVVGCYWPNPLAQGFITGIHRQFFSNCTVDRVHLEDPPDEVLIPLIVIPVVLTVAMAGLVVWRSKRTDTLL
Method in brief: (§1)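 Receptor-expressing cells (human receptors in 1321N1, rat receptors in HEK) incubated 30 min at room temperature with peptide in HBSS/HEPES pH 7.4, 0.1% BSA, 0.5 mM IBMX. cAMP read by HTRF; EC50 from 4-parameter fit as % of maximal amylin or calcitonin response.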

[2] = target: T2, human calcitonin receptor (hCTR) (Homo sapiens, UniProt P30988); test: cAMP production in 1321N1 cells with stable recombinant expression of human calcitonin receptor (hCTR); type: cell-based; settings: cAMP, 1321N1 cells, assay buffer with 0.1% BSA; read-out: EC50 (pM) hCTR
T2 construct: expressed in transfected cells
T2 sequence (P30988 25-474): T1 sequence (P30988 25-474)
Method in brief: as §1

[3] = Thioflavin T fibrillation assay; type: physicochemical; settings: ThT fibrillation assay; peptide 1 mg/mL in 25 mM sodium acetate buffer pH 4.0; 6 days at 37 °C with shaking; >144 h = no increase
Method in brief: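 Peptides at 1 mg/mL in 25 mM sodium acetate pH 4.0 with ThT (from 0.25 mM stock), incubated 6 days at 37 °C with intermittent orbital shaking at 500–750 rpm. Fluorescence (ex 444/em 480 nm) read every 30 min; value is average time to a rise in baseline-corrected signal.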

[4] = Pharmacokinetic determination via IV and SC administration in Sprague Dawley rats; settings: male, rat, plasma, 20 nmol/kg
Method: PK studies were performed to determine the half-life (T1/2) of test peptides. T1/2 describes the time taken for the maximum plasma concentration (Cmax) of a test substance to halve its steady-state concentration when in circulation.
Male SD rats were purchased from Si Bei Fu Laboratory Animal Technology Co. Ltd (China). The animals were 6-8 weeks old with body weights of 200-300 g on the dosing date. The animals were housed in a 12-hour light/12-hour dark cycle environment and were fasted overnight before dosing. The body weight of the animals were recorded before dosing, 24 h and 48 h post dosing . Animals had free access to food and drinks, and the food consumption was quantified every day.
Test articles were administered at 20 nmol/kg. Blood samples were collected from each animal via Jugular vein.
The blood samples were transferred into eppendorf low binding tube containing K2 EDTA. Above 0.150 mL blood were collected at each time point. Blood samples were centrifuged at 4,000 g for 5 minutes at 4° C. to obtain plasma. The plasma samples were stored frozen at −75±15° C. until analysis.
Concentrations of the test articles in the plasma samples were analyzed using a LC-MS/MS method. Data acquisition was performed by LabSolution version 5.89 software (Shimadzu, Kyoto, Japan). Data statistics were performed using Excel 97-2003 software. The pharmacokinetic parameters of test articles were calculated using a non-compartmental approach with Phoenix™ VVinNonlin® 6.1.
The following pharmacokinetic parameters were calculated, whenever possible from the plasma concentration versus time data: • IV administration: T1/2, C0, AUClast, AUCinf, MRTinf, Cl, Vss, Number of Points for Regression. • SC administration: Tmax, Cmax, AUClast, AUCinf, MRTinf, F, Number of Points for Regression.

Ratio (selectivity hAMYR vs hCTR, ratio of EC50 values at the two receptors) [1]	EC50 [1] [pM]	EC50 [2] [pM]	Time taken to detect increase in fluorescence intensity [3] [h]	half-life ([4]; iv) [h]	half-life ([4]; sc) [h]	SMILES
15	278	4040	>144	6.6	9.3	CC[C@H](C)[C@H](NC(=O)[C@@H]1CCCN1C(=O)CNC(=O)[C@](C)(Cc1ccccc1)NC(=O)[C@H](CC(N)=O)NC(=O)[C@H](CC(N)=O)NC(=O)[C@H](CO)NC(=O)[C@H](CO)NC(=O)[C@H](Cc1c[nH]cn1)NC(=O)[C@H](CCCNC(=N)N)NC(=O)[C@H](CC(C)C)NC(=O)[C@H](Cc1ccccc1)NC(=O)[C@H](CC(N)=O)NC(=O)[C@H](C)NC(=O)[C@H](CC(C)C)NC(=O)[C@H](CCCNC(=N)N)NC(=O)[C@H](CCC(N)=O)NC(=O)[C@@H](NC(=O)[C@H](C)NC(=O)[C@@H]1CSSC[C@H](NC(=O)[C@@H](N)CCCCNC(=O)CC[C@H](NC(=O)CCCCCCCCCCCCCCCCC(=O)O)C(=O)O)C(=O)N[C@@H](CC(N)=O)C(=O)N[C@@H]([C@@H](C)O)C(=O)N[C@@H](C)C(=O)N[C@@H]([C@@H](C)O)C(=O)N1)[C@@H](C)O)C(=O)N[C@@H](CC(C)C)C(=O)N1CCC[C@H]1C(=O)N1CCC[C@H]1C(=O)N[C@H](C(=O)N[C@@H](CC(N)=O)C(=O)N[C@H](C(=O)NCC(=O)N[C@@H](CO)C(=O)N[C@@H](CC(N)=O)C(=O)N[C@H](C(=O)N[C@@H](Cc1ccc(O)cc1)C(N)=O)[C@@H](C)O)C(C)C)[C@@H](C)O [Peptide 19, K(γE-C18diacid)[CNTATC]ATQRLANFLRHSSNN(αMePhe)GPILPPTNVGSNTY-amide] (H-K([γGlu-C18 diacid])CNTATCATQRLANFLRHSSNN[αMeF]GPILPPTNVGSNTY-NH2; disulfide 2-7; N-terminus assumed)
31	207	6400	–	6	9.3	CC[C@H](C)[C@H](NC(=O)[C@@H]1CCCN1C(=O)CNC(=O)[C@H](Cc1ccccc1)NC(=O)[C@H](CC(N)=O)NC(=O)C(C)(C)NC(=O)[C@H](CO)NC(=O)[C@H](CO)NC(=O)[C@H](Cc1c[nH]cn1)NC(=O)[C@H](CCCNC(=N)N)NC(=O)[C@H](CC(C)C)NC(=O)[C@H](Cc1ccccc1)NC(=O)[C@H](CC(N)=O)NC(=O)[C@H](C)NC(=O)[C@H](CC(C)C)NC(=O)[C@H](CCCNC(=N)N)NC(=O)[C@H](CCC(N)=O)NC(=O)[C@@H](NC(=O)[C@H](C)NC(=O)[C@@H]1CSSC[C@H](NC(=O)[C@H](CCCCN)NC(=O)[C@@H](N)CCCCNC(=O)CC[C@H](NC(=O)CCCCCCCCCCCCCCCCC(=O)O)C(=O)O)C(=O)N[C@@H](CC(N)=O)C(=O)N[C@@H]([C@@H](C)O)C(=O)N[C@@H](C)C(=O)N[C@@H]([C@@H](C)O)C(=O)N1)[C@@H](C)O)C(=O)N[C@@H](CC(C)C)C(=O)N1CCC[C@H]1C(=O)N1CCC[C@H]1C(=O)N[C@H](C(=O)N[C@@H](CC(N)=O)C(=O)N[C@H](C(=O)NCC(=O)N[C@@H](CO)C(=O)N[C@@H](CC(N)=O)C(=O)N[C@H](C(=O)N[C@@H](Cc1ccc(O)cc1)C(N)=O)[C@@H](C)O)C(C)C)[C@@H](C)O [Peptide 65, K(γE-C18diacid)K[CNTATC]ATQRLANFLRHSS(Aib)NFGPILPPTNVGSNTY-amide] (H-K([γGlu-C18 diacid])KCNTATCATQRLANFLRHSS[Aib]NFGPILPPTNVGSNTY-NH2; disulfide 3-8)
17	418	7010	>144	9.4	12.2	CC[C@H](C)[C@H](NC(=O)[C@@H]1CCCN1C(=O)CNC(=O)[C@H](Cc1ccccc1)NC(=O)[C@H](CC(N)=O)NC(=O)C(C)(C)NC(=O)[C@H](CO)NC(=O)[C@H](CO)NC(=O)[C@H](Cc1c[nH]cn1)NC(=O)[C@H](CCCNC(=N)N)NC(=O)[C@H](CC(C)C)NC(=O)[C@H](Cc1ccccc1)NC(=O)[C@H](CC(N)=O)NC(=O)[C@H](C)NC(=O)[C@H](CC(C)C)NC(=O)[C@H](CCCNC(=N)N)NC(=O)[C@H](CCC(N)=O)NC(=O)[C@@H](NC(=O)[C@H](C)NC(=O)[C@@H]1CSSC[C@H](NC(=O)[C@H](CCCCN)NC(=O)[C@@H](N)CCCCNC(=O)CC[C@H](NC(=O)CC[C@H](NC(=O)CCCCCCCCCCCCCCCCC(=O)O)C(=O)O)C(=O)O)C(=O)N[C@@H](CC(N)=O)C(=O)N[C@@H]([C@@H](C)O)C(=O)N[C@@H](C)C(=O)N[C@@H]([C@@H](C)O)C(=O)N1)[C@@H](C)O)C(=O)N[C@@H](CC(C)C)C(=O)N1CCC[C@H]1C(=O)N1CCC[C@H]1C(=O)N[C@H](C(=O)N[C@@H](CC(N)=O)C(=O)N[C@H](C(=O)NCC(=O)N[C@@H](CO)C(=O)N[C@@H](CC(N)=O)C(=O)N[C@H](C(=O)N[C@@H](Cc1ccc(O)cc1)C(N)=O)[C@@H](C)O)C(C)C)[C@@H](C)O [Peptide 66, K(γE-γE-C18diacid)K[CNTATC]ATQRLANFLRHSS(Aib)NFGPILPPTNVGSNTY-amide] (H-K([γGlu-γGlu-C18 diacid])KCNTATCATQRLANFLRHSS[Aib]NFGPILPPTNVGSNTY-NH2; disulfide 3-8)
11.9	329	3930	–	7.7	8.9	CC[C@H](C)[C@H](NC(=O)[C@@H]1CCCN1C(=O)CNC(=O)[C@H](Cc1ccccc1)NC(=O)[C@H](CC(N)=O)NC(=O)[C@H](CC(N)=O)NC(=O)[C@H](CO)NC(=O)[C@H](CO)NC(=O)[C@H](Cc1c[nH]cn1)NC(=O)C(C)(C)NC(=O)[C@H](CC(C)C)NC(=O)[C@H](Cc1ccccc1)NC(=O)[C@H](CC(N)=O)NC(=O)[C@H](C)NC(=O)[C@H](CC(C)C)NC(=O)[C@H](CCCNC(=N)N)NC(=O)[C@H](CCC(N)=O)NC(=O)[C@@H](NC(=O)[C@H](C)NC(=O)[C@@H]1CSSC[C@H](NC(=O)[C@@H](N)CCCCNC(=O)CC[C@H](NC(=O)CCCCCCCCCCCCCCCCC(=O)O)C(=O)O)C(=O)N[C@@H](CC(N)=O)C(=O)N[C@@H]([C@@H](C)O)C(=O)N[C@@H](C)C(=O)N[C@@H]([C@@H](C)O)C(=O)N1)[C@@H](C)O)C(=O)N[C@@H](CC(C)C)C(=O)N1CCC[C@H]1C(=O)N1CCC[C@H]1C(=O)N[C@H](C(=O)N[C@@H](CCCNC(=N)N)C(=O)N[C@H](C(=O)NCC(=O)N[C@@H](CO)C(=O)N[C@@H](CC(N)=O)C(=O)N[C@H](C(=O)N[C@@H](Cc1ccc(O)cc1)C(N)=O)[C@@H](C)O)C(C)C)[C@@H](C)O [Peptide 155] (H-K([γGlu-C18 diacid])CNTATCATQRLANFL[Aib]HSSNNFGPILPPTRVGSNTY-NH2; disulfide 2-7; N-terminus assumed)
